Measured values as given in paper PMC5681660, “Reduced hepatitis B and D viral entry using clinically applied drugs as novel inhibitors of the bile acid transporter NTCP” (Scientific Reports, 2017).
Counter-ions that a name gives are not always drawn. Like-named read-outs stand apart in the source and are kept apart here.

Assays:
human NTCP [1] = molecular target: T1, human NTCP (Homo sapiens, UniProt Q14973); experiment: Screening fluorescent competitive Myrcludex B-FITC binding assay (96-well, 10 µM drug)
T1 sequence (Q14973 1-349): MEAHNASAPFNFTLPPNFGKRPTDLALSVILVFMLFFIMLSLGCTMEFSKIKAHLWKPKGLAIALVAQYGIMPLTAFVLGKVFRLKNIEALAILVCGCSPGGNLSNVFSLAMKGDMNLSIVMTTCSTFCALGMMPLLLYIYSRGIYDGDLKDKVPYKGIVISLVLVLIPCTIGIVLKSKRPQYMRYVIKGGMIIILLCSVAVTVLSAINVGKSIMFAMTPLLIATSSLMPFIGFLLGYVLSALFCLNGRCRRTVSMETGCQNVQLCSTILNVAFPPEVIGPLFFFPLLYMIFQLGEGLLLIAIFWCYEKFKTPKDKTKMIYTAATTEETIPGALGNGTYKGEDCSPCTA

human NTCP [2] = molecular target: T1, human NTCP; experiment: Screening taurocholate uptake assay (96-well, [14C]taurocholate, 10 µM drug)
[3] = Prestwick library screen, Myrcludex B-FITC binding, 10 µM drug
[4] = Prestwick library screen, taurocholate uptake, 10 µM drug
[5] = ranking score beside the functional and binding assay B-scores of the screen
[6] = screen, 10 µM drug, Myrcludex B-FITC binding
[7] = combined ranking from functional and binding screening assays
[8] = screen, 10 µM drug, taurocholate uptake
[9] = Prestwick library screen, 10 µM drug, B-score of Myrcludex B-FITC binding
[10] = Prestwick library screen, 10 µM drug, B-score of taurocholate uptake
[11] = combined ranking from functional and binding assay B-scores

Row | SMILES | B-score binding assay (human NTCP [1]; [3]) | B-score functional assay (human NTCP [2]; [4]) | Ranking score (human NTCP [2]; [5]) | B-score binding assay (human NTCP [1]; [6]) | Ranking score (human NTCP [2]; [7]) | B-score functional assay (human NTCP [2]; [8]) | further results
1 | CO[C@@H]1[C@@H](O[C@@H]2O[C@H](C)[C@@H](O[C@H]3C[C@@](C)(O)[C@@H](OC(=O)CC(C)C)[C@H](C)O3)[C@H](N(C)C)[C@H]2O)[C@@H](CC=O)C[C@@H](C)[C@@H](O)/C=C/C=C/C[C@@H](C)OC(=O)C[C@H]1OC(C)=O [Josamycin] | -0.039 | 0.552 | 744.048 |  |  |  | 
2 | NC[C@H]1O[C@H](O[C@H]2[C@H](O)[C@@H](O[C@H]3O[C@H](CO)[C@@H](O)[C@H](N)[C@H]3O)[C@H](N)C[C@@H]2N)[C@H](O)[C@@H](O)[C@@H]1O [Kanamycin A sulfate] | 1.616 | -0.456 | 673.457 |  |  |  | 
3 | O=C(O)C(O)C(O)C(=O)O.O=C(c1ccc(F)cc1)C1CCN(CCn2c(=O)[nH]c3ccccc3c2=O)CC1 [Ketanserin tartrate hydrate] | -0.046 | 0.482 | 727.865 |  |  |  | 
4 | CC(=O)N1CCN(c2ccc(OCC3COC(Cn4ccnc4)(c4ccc(Cl)cc4Cl)O3)cc2)CC1 (stereo not drawn) [Ketoconazole] |  |  |  | -1.382 | 349.5 | 0.044 | 
5 | O=C(c1ccccc1)c1ccc2n1CCC2C(=O)O (stereo not drawn) [Ketorolac tromethamine] |  |  |  | -0.614 | 396.636 | -0.269 | 
6 | CN1CCC(=C2c3ccccc3CC(=O)c3sccc32)CC1 [Ketotifen fumarate] |  |  |  | -0.838 | 425.088 | 0.006 | 
7 | COc1c2occc2c(OC)c2c(=O)cc(C)oc12 [Khellin] |  |  |  | -0.883 | 450.763 | 0.111 | 
8 | CCOC(=O)C1=C(C)NC(C)=C(C(=O)OCC)C1c1ccccc1/C=C/C(=O)OC(C)(C)C [Lacidipine] |  |  |  |  |  |  | B-score binding assay (human NTCP [1]; [9]): 1.528; B-score functional assay (human NTCP [2]; [10]): 0.194; Ranking score (human NTCP [2]; [11]): 957.497
9 | Nc1ccn([C@@H]2CS[C@H](CO)O2)c(=O)n1 [Lamivudine] |  |  |  | -1.334 | 411.191 | 0.533 | 
10 | Nc1nnc(-c2cccc(Cl)c2Cl)c(N)n1 [Lamotrigine] | 0.084 | 0.153 | 756.135 |  |  |  | 
11 | Cc1c(OCC(F)(F)F)ccnc1C[S+]([O-])c1nc2ccccc2[nH]1 (stereo not drawn) [Lansoprazole] |  |  |  |  |  |  | B-score binding assay (human NTCP [1]; [9]): 0.157; B-score functional assay (human NTCP [2]; [10]): 1.884; Ranking score (human NTCP [2]; [11]): 961.173
12 | CC(C)OC(=O)CCC/C=C\C[C@@H]1[C@@H](CC[C@@H](O)CCc2ccccc2)[C@H](O)C[C@@H]1O [Latanoprost] |  |  |  | 0.817 | 347.885 | -2.131 | 
13 | Cc1oncc1C(=O)Nc1ccc(C(F)(F)F)cc1 [Leflunomide] | -0.027 | 0.376 | 727.533 |  |  |  | 
14 | CC(C)(C)NC[C@H](O)c1ccc(O)c(CO)c1 [Levalbuterol hydrochloride] |  |  |  |  |  |  | B-score binding assay (human NTCP [1]; [9]): 1.242; B-score functional assay (human NTCP [2]; [10]): 0.334; Ranking score (human NTCP [2]; [11]): 962.353
15 | c1ccc([C@H]2CN3CCSC3=N2)cc1 [Levamisole hydrochloride] |  |  |  |  |  |  | B-score binding assay (human NTCP [1]; [9]): 1.834; B-score functional assay (human NTCP [2]; [10]): 0.335; Ranking score (human NTCP [2]; [11]): 1002.84
16 | CC[C@@H](C(N)=O)N1CCCC1=O [Levetiracetam] | 0.117 | -0.058 | 657.267 |  |  |  | 
17 | C[C@@H]1CN([C@H]2CC[C@](C#N)(c3ccc(F)cc3)CC2)CC[C@]1(C(=O)O)c1ccccc1 [Levocabastine hydrochloride] | 1.175 | -0.031 | 801.329 |  |  |  | 
18 | C[C@H](N)[C@H](O)c1ccc(O)c(O)c1 [Levonordefrin] |  |  |  | -1.559 | 346.693 | 0.177 | 
19 | CCC(=O)O[C@@](Cc1ccccc1)(c1ccccc1)[C@@H](C)CN(C)C [Levopropoxyphene napsylate] |  |  |  |  |  |  | B-score binding assay (human NTCP [1]): 0; B-score functional assay (human NTCP [2]): 0.245; Ranking score (human NTCP [2]): 726.763
20 | CCN(CC)CC(=O)Nc1c(C)cccc1C [Lidocaine hydrochloride] | 0.07 | 0.516 | 815.009 |  |  |  | 
21 | CCC[C@@H]1C[C@@H](C(=O)N[C@@H]([C@H]2O[C@H](SC)[C@H](O)[C@@H](O)[C@H]2O)[C@@H](C)O)N(C)C1 [Lincomycin hydrochloride] |  |  |  |  |  |  | B-score binding assay (human NTCP [1]; [9]): 0.419; B-score functional assay (human NTCP [2]; [10]): 0.903; Ranking score (human NTCP [2]; [11]): 960.458
22 | COc1cccc(N(C)C(=S)Oc2ccc3c(c2)CCCC3)n1 [Liranaftate] |  |  |  |  |  |  | B-score binding assay (human NTCP [1]; [9]): 0.615; B-score functional assay (human NTCP [2]; [10]): 0.374; Ranking score (human NTCP [2]; [11]): 904.804

Row | SMILES | B-score binding assay (human NTCP [1]; [3]) | B-score functional assay (human NTCP [2]; [4]) | Ranking score (human NTCP [2]; [5]) | B-score binding assay (human NTCP [1]; [6]) | Ranking score (human NTCP [2]; [7]) | B-score functional assay (human NTCP [2]; [8]) | further results
23 | NCCCC[C@H](N[C@@H](CCc1ccccc1)C(=O)O)C(=O)N1CCC[C@H]1C(=O)O [Lisinopril] |  |  |  | -1.412 | 445.618 | 1.757 | 
24 | CCn1cc(C(=O)O)c(=O)c2cc(F)c(N3CCNC(C)C3)c(F)c21 (stereo not drawn) [Lomefloxacin hydrochloride] | 0.323 | 0.226 | 831.882 |  |  |  | 
25 | COc1ccc(CN2CCN(C(c3ccc(F)cc3)c3ccc(F)cc3)CC2)c(OC)c1OC.Cl.Cl [Lomerizine hydrochloride] |  |  |  | -1.084 | 328.713 | -0.214 | 
26 | CN1CCN(C2=Nc3ccccc3Oc3ccc(Cl)cc32)CC1 [Loxapine succinate] |  |  |  | 0.552 | 424.073 | -1.397 | 
27 | C#C[C@]1(O)CC[C@H]2[C@@H]3CCC4=CCCC[C@@H]4[C@H]3CC[C@@]21C [Lynestrenol] |  |  |  |  |  |  | B-score binding assay (human NTCP [1]; [9]): 0.007; B-score functional assay (human NTCP [2]; [10]): 2.662; Ranking score (human NTCP [2]; [11]): 897.58
28 | NCc1ccc(S(N)(=O)=O)cc1 [Mafenide hydrochloride] | -0.055 | 0.341 | 703.397 |  |  |  | 
29 | CNCCCC12CCC(c3ccccc31)c1ccccc12 [Maprotiline hydrochloride] |  |  |  | -0.835 | 403.36 | -0.051 | 
30 | COC(=O)Nc1nc2ccc(C(=O)c3ccccc3)cc2[nH]1 [Mebendazole] |  |  |  | -0.531 | 327.443 | -0.824 | 
31 | CN1CCc2c(c3ccccc3n2Cc2ccccc2)C1.O=S(=O)(O)c1cccc2c(S(=O)(=O)O)cccc12 [Mebhydroline 1,5-naphtalenedisulfonate] |  |  |  |  |  |  | B-score binding assay (human NTCP [1]; [9]): 1.889; B-score functional assay (human NTCP [2]; [10]): 0.022; Ranking score (human NTCP [2]; [11]): 893.031
32 | CNC1(C)C2CCC(C2)C1(C)C (stereo not drawn) [Mecamylamine hydrochloride] |  |  |  | -0.663 | 340.338 | -0.591 | 
33 | CN(C)CCOC(=O)COc1ccc(Cl)cc1.Cl [Meclofenoxate hydrochloride] |  |  |  | -1.168 | 355.4 | -0.036 | 
34 | CC(=O)[C@H]1CC[C@H]2[C@@H]3C[C@H](C)C4=CC(=O)CC[C@]4(C)[C@H]3[C@@H](O)C[C@]12C [Medrysone] |  |  |  | -0.142 | 406.005 | -0.706 | 
35 | CCN(CC)CCNC(=O)COc1ccc(OC)cc1.Cl [Mefexamide hydrochloride] |  |  |  |  |  |  | B-score binding assay (human NTCP [1]; [9]): 0.456; B-score functional assay (human NTCP [2]; [10]): 1.015; Ranking score (human NTCP [2]; [11]): 979.142
36 | OC(c1cc(C(F)(F)F)nc2c(C(F)(F)F)cccc12)C1CCCCN1 (stereo not drawn) [Mefloquine hydrochloride] | -0.336 | 1.734 | 704.329 |  |  |  | 
37 | CC(=O)O[C@]1(C(C)=O)CC[C@H]2[C@@H]3C=C(C)C4=CC(=O)CC[C@]4(C)[C@H]3CC[C@@]21C [Megestrol acetate] |  |  |  |  |  |  | B-score binding assay (human NTCP [1]; [9]): 0.319; B-score functional assay (human NTCP [2]; [10]): 0.476; Ranking score (human NTCP [2]; [11]): 869.581
38 | COc1ccc2[nH]cc(CCNC(C)=O)c2c1 [Melatonin] |  |  |  |  |  |  | B-score binding assay (human NTCP [1]; [9]): 0.248; B-score functional assay (human NTCP [2]; [10]): 0.509; Ranking score (human NTCP [2]; [11]): 864.497
39 | C=C1C[C@H]2[C@@H]3C=C(C)C4=CC(=O)CC[C@]4(C)[C@H]3CC[C@]2(C)[C@@]1(OC(C)=O)C(C)=O [Melengestrol acetate] |  |  |  | 1.224 | 323.966 | -2.447 | 
40 | CC12CC3CC(C)(C1)CC(N)(C3)C2 [Memantine Hydrochloride] | -0.02 | 1.46 | 837.42 |  |  |  | 
41 | Cc1ccccc1OCC(O)CO (stereo not drawn) [Mephenesin] | 1.192 | -0.317 | 689.632 |  |  |  | 
42 | CNC(C)(C)Cc1ccccc1.CNC(C)(C)Cc1ccccc1.O=S(=O)(O)O [Mephentermine hemisulfate] | 0.758 | -0.093 | 728.877 |  |  |  | 
43 | CCC1(c2ccccc2)NC(=O)N(C)C1=O (stereo not drawn) [Mephenytoin] | 0 | 0.862 | 812.389 |  |  |  | 
